Peptide text beside a SMILES is read from it. * marks the point of attachment. Cbz = O=C(OCc1ccccc1)*; CH2F = FC*
Experiments:
[1] = tested on: CV-1/EBNA cells expressing TRAIL-R; experiment: TRAIL-R-induced death of transfected CV-1/EBNA cells (lacZ co-transfection, X-gal staining); format: cell-based, African green monkey; details: 48 hours after transfection
Method: CV-1/EBNA cells were transfected, by the DEAE-dextran method, with expression plasmids for TRAIL-R (pDC409-TRAIL-R), together with a threefold excess of empty expression vector (pDC409) in the presence or absence of z-VAD-fmk (10 μM; in the culture medium), or together with a threefold excess of expression vector pDC409-CrmA, pDC409-p35, or pDC409-FADD-DN. In addition, 400 ng/slide of an expression vector for the E. coli lacz gene was co-transfected together with all DNA mixes. The transfected cells were cultured in chambers mounted on slides.
48 hours after transfection, cells were washed with PBS, fixed with glutaraldehyde and incubated with X-gal (5-bromo-4-chloro-3-indoxyl-β-D-galactopyranoside). Cells expressing β-galactosidase stain blue. A decrease in the percentage of stained cells indicates loss of β-galactosidase expression, and correlates with death of cells that express the protein(s) co-transfected with the lacz gene.

[2] = biological target: T1, full length human TRAIL-R (Homo sapiens, UniProt O14763, V191A); experiment: FACS binding assay of LZ-TRAIL to CV-1/EBNA cells expressing recombinant TRAIL-R; details: LZ-TRAIL 5 μg/ml; cells co-transfected with TRAIL-R and CrmA vectors compared to CrmA vector alone; 48 hours after transfection
T1 construct: expressed in transfected cells; host or cells: CV-1/EBNA cells, co-transfected with pDC409-CrmA
Method: Full length human TRAIL-R was expressed and tested for the ability to bind TRAIL. The binding assay was conducted as follows.
A fusion protein comprising a leucine zipper peptide fused to the N-terminus of a soluble TRAIL polypeptide (LZ-TRAIL) was employed in the assay. An expression construct was prepared, essentially as described for preparation of the Flag®-TRAIL expression construct in Wiley et al. (Immunity, 3:673-682, 1995; hereby incorporated by reference), except that DNA encoding the Flag® peptide was replaced with a sequence encoding a modified leucine zipper that allows for trimerization. The construct, in expression vector pDC409, encoded a leader sequence derived from human cytomegalovirus, followed by the leucine zipper moiety fused to the N-terminus of a soluble TRAIL polypeptide. The TRAIL polypeptide comprised amino acids 95-281 of human TRAIL (a fragment of the extracellular domain), as described in Wiley et al. (supra). […]
CV-1/EBNA cells were co-transfected with pDC409-TRAIL-R together with pDC409-CrmA, or with pDC409-CrmA alone. […] 48 hours after transfection, cells were detached non-enzymatically and incubated with LZ-TRAIL (5 μg/ml), a biotinylated anti-LZ monoclonal antibody (5 μg/ml), and phycoerythrin-conjugated streptavidin (1:400), before analysis by fluorescence-activated cell scanning (FACS). […]

[3] = tested on: TRAIL-induced apoptosis of Jurkat cells; experiment: Blocking of TRAIL-induced apoptosis of Jurkat cells (MTT cell viability assay); format: cell-based, human; details: LZ-TRAIL 13 ng/ml, test substance serially diluted from 10 μg/ml
Method: TRAIL-R was tested for the ability to block TRAIL-induced apoptosis of Jurkat cells. The TRAIL-R employed in the assay was in the form of a fusion protein designated sTRAIL-R/Fc, which comprised the extracellular domain of human TRAIL-R, fused to the N-terminus of an Fc polypeptide derived from human IgG1.
A fusion protein designated TNF-R2—Fc, employed as a control, comprised the extracellular domain of the TNF receptor protein known as p75 or p80 TNF-R (Smith et al., Science 248:1019-1023, 1990; Smith et al. Cell 76:959-962, 1994), fused to an Fc polypeptide. A mouse monoclonal antibody that is a blocking antibody directed against human TRAIL, was employed in the assay as well.
Jurkat cells were incubated with varying or constant concentrations of LZ-TRAIL (the LZ-TRAIL fusion protein described in example 6), in the absence or presence of varying concentrations of sTRAIL-R-Fc, TNF-R2-Fc, or the TRAIL-specific monoclonal antibody. Cell death was quantitated using an MTT cell viability assay (MTT is 3-[4,5-dimethylthiazol-2-yl]-2,5-diphenyltetrazolium bromide), as previously described (Mosmann, J. Immunol. Methods 65:55-63, 1983). […]

Q: COC(=O)C[C@H](NC(=O)[C@H](C)NC(=O)[C@@H](NC(=O)OCc1ccccc1)C(C)C)C(=O)CF [z-VAD-fmk, benzyloxycarbonyl-Val-Ala-Asp-fluoromethylketone, reference compound] (Cbz-Val-Ala-Asp(OMe)-CH2F) was tested. Which “reduction of death of transfected cells expressing TRAIL-R” value ([1]; 10 μM in the culture medium) did it give?
A: Its value is “effectively reduced death”.

Q: “LZ-TRAIL: leucine zipper peptide fused to the N-terminus of a soluble TRAIL polypeptide (amino acids 95-281 of human TRAIL)” was tested. Which “binding of LZ-TRAIL to transfected cells” value [2] did it give?
A: The value was “significantly enhanced binding”.

Q: “sTRAIL-R/Fc: extracellular domain of human TRAIL-R, fused to the N-terminus of an Fc polypeptide derived from human IgG1” was tested. Which “blocking of TRAIL-induced apoptosis (percent cell death)” value [3] did it give?
A: The value was “blocked TRAIL-induced apoptosis in a dose dependent fashion”.

Q: And the “blocking of TRAIL-induced apoptosis (percent cell death)” value ([3]; listed as soluble TRAIL-R/Fc fusion protein)?
A: The value was “blocked TRAIL-induced apoptosis”.

B1: baculovirus p35: 35-kilodalton protein encoded by Autographa californica nuclear polyhedrosis virus, expressed from pDC409-p35 (protein, UniProt P08160 1-299, looked up)
Early 35 kDa protein: MCVIFPVEIDVSQTIIRDCQVDKQTRELVYINKIMNTQLTKPVLMMFNISGPIRSVTRKNNNLRDRIKSKVDEQFDQLERDYSDQMDGFHDSIKYFKDEHYSVSCQNGSVLKSKFAKILKSHDYTDKKSIEAYEKYCLPKLVDERNDYYVAVCVLKPGFENGSNQVLSFEYNPIGNKVIVPFAHEINDTGLYEYDVVAYVDSVQFDGEQFEEFVQSLILPSSFKNSEKVLYYNEASKNKSMIYKALEFTTESSWGKSEKYNWKIFCNGFIYDKKSKVLYVKLHNVTSALNKNVILNTIK
Q: How did the “reduction of death of transfected cells expressing TRAIL-R” value ([1]; co-transfected, threefold excess of expression vector) turn out when B1 was run?
A: Its value is “effectively reduced death”.
